Measurements published in doi:10.1101/2022.10.01.510427v1 (biorxiv, 2022).

Target: T1, Gaussia luciferase (GLuc) (Gaussia princeps (in: crustaceans), UniProt Q9BLZ2)
T1 sequence (Q9BLZ2 18-185): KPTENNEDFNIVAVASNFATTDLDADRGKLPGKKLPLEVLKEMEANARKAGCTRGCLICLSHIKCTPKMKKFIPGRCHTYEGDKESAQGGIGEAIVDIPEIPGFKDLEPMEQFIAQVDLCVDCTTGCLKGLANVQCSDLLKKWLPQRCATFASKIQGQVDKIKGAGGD
Assay: bioluminescence inhibition assay
Format: biochemical

IC50: 10 to 100 µM
Compound: O=c1n(Cc2ccc(O)cc2)nc2c(Cc3ccccc3)nc(-c3ccc(O)cc3)cn12 [Aza-CTZ]
